From patent US6465457B1 (priority 1991, dated 2002)

Assays:
Type in all cases: in vivo
[1] = test system: Thanatephorus cucumeries (Rice); assay: Foliar fungal disease test on plants: Thanatephorus cucumeries (Rice); settings: 100 ppm a.i. foliar spray or root drench (approx. 40 ppm in dry soil), one or two days before inoculation
[2] = test system: Pyricularia oryzae (Rice); settings: 100 ppm a.i. foliar spray or root drench (approx. 40 ppm in dry soil), one or two days before inoculation
[3] = test system: Erysiphe graminis tritici (Wheat); assay: Foliar fungal disease test on plants: Erysiphe graminis tritici (Wheat); settings: 100 ppm a.i. foliar spray or root drench (approx. 40 ppm in dry soil); plants inoculated 24 hours before treatment
[4] = test system: Puccinia recondita (Wheat); assay: Foliar fungal disease test on plants: Puccinia recondita (Wheat); settings: 100 ppm a.i. foliar spray or root drench; plants inoculated with Puccinia recondita 48 hours before treatment
[5] = test system: Plasmopara viticola (Vines); assay: Foliar fungal disease test on plants: Plasmopara viticola (Vines); settings: 100 ppm a.i. foliar spray or root drench (approx. 40 ppm in dry soil), one or two days before inoculation
[6] = test system: Phytophthora infestans (Tomatoes); settings: 100 ppm a.i. foliar spray or root drench (approx. 40 ppm in dry soil), one or two days before inoculation
Septoria nodorum (Wheat) = assay: Foliar fungal disease test on plants: Septoria nodorum (Wheat); settings: 100 ppm a.i. foliar spray or root drench (approx. 40 ppm in dry soil), one or two days before inoculation
[7] = test system: Venturia inaequalis (Apples); assay: Foliar fungal disease test on plants: Venturia inaequalis (Apples); settings: 100 ppm a.i. foliar spray or root drench (approx. 40 ppm in dry soil), one or two days before inoculation

COC=C(C(=O)OC)c1ccccc1COC(=O)N(C(C)=O)c1ccccc1Cl [12 (99)]
POCO (Percentage of Control) disease level, Thanatephorus cucumeries (Rice) [1]: 90 (90 and 94 = 60.1-100% disease present) | POCO (Percentage of Control) disease level, Pyricularia oryzae (Rice) [2]: 10 (10 = 5.1-10% disease present) | POCO (Percentage of Control) disease level, Erysiphe graminis tritici (Wheat) [3]: 30 (30 = 20.1-30% disease present) | POCO (Percentage of Control) disease level, Puccinia recondita (Wheat) [4]: 30+ (30 = 20.1-30% disease present) | POCO (Percentage of Control) disease level, Plasmopara viticola (Vines) [5]: 0 (0 = 0% disease present) | POCO (Percentage of Control) disease level, Phytophthora infestans (Tomatoes) [6]: 90 (90 and 94 = 60.1-100% disease present) | POCO (Percentage of Control) disease level, Septoria nodorum (Wheat) (Septoria nodorum (Wheat)): 10 (10 = 5.1-10% disease present) | POCO (Percentage of Control) disease level, Venturia inaequalis (Apples) [7]: 5 (5 = 3.1-5% disease present)

COC=C(C(=O)OC)c1ccccc1COC(=O)N(C)c1ccc(F)cc1 [13 (2)]
POCO (Percentage of Control) disease level, Thanatephorus cucumeries (Rice) [1]: 0 (0 = 0% disease present) | POCO (Percentage of Control) disease level, Pyricularia oryzae (Rice) [2]: 0 (0 = 0% disease present) | POCO (Percentage of Control) disease level, Erysiphe graminis tritici (Wheat) [3]: 0 (0 = 0% disease present) | POCO (Percentage of Control) disease level, Puccinia recondita (Wheat) [4]: 0+ (0 = 0% disease present) | POCO (Percentage of Control) disease level, Plasmopara viticola (Vines) [5]: 0 (0 = 0% disease present) | POCO (Percentage of Control) disease level, Phytophthora infestans (Tomatoes) [6]: 0 (0 = 0% disease present) | POCO (Percentage of Control) disease level, Septoria nodorum (Wheat) (Septoria nodorum (Wheat)): 0 (0 = 0% disease present) | POCO (Percentage of Control) disease level, Venturia inaequalis (Apples) [7]: 0 (0 = 0% disease present)

CCN(C(=O)OCc1ccccc1C(=COC)C(=O)OC)c1ccc(F)cc1 [13 (3)]
POCO (Percentage of Control) disease level, Thanatephorus cucumeries (Rice) [1]: 0 (0 = 0% disease present) | POCO (Percentage of Control) disease level, Pyricularia oryzae (Rice) [2]: 0 (0 = 0% disease present) | POCO (Percentage of Control) disease level, Erysiphe graminis tritici (Wheat) [3]: 0 (0 = 0% disease present) | POCO (Percentage of Control) disease level, Puccinia recondita (Wheat) [4]: 0+ (0 = 0% disease present) | POCO (Percentage of Control) disease level, Plasmopara viticola (Vines) [5]: 0 (0 = 0% disease present) | POCO (Percentage of Control) disease level, Phytophthora infestans (Tomatoes) [6]: 0 (0 = 0% disease present) | POCO (Percentage of Control) disease level, Septoria nodorum (Wheat) (Septoria nodorum (Wheat)): 0 (0 = 0% disease present) | POCO (Percentage of Control) disease level, Venturia inaequalis (Apples) [7]: 0 (0 = 0% disease present)

COC=C(C(=O)OC)c1ccccc1COC(=O)Nc1ccccc1OC [16 (1)]
POCO (Percentage of Control) disease level, Thanatephorus cucumeries (Rice) [1]: 90 (90 and 94 = 60.1-100% disease present) | POCO (Percentage of Control) disease level, Pyricularia oryzae (Rice) [2]: 20 (20 and 24 = 10.1-20% disease present) | POCO (Percentage of Control) disease level, Erysiphe graminis tritici (Wheat) [3]: 90 (90 and 94 = 60.1-100% disease present) | POCO (Percentage of Control) disease level, Puccinia recondita (Wheat) [4]: 90+ (90 and 94 = 60.1-100% disease present) | POCO (Percentage of Control) disease level, Plasmopara viticola (Vines) [5]: 0 (0 = 0% disease present) | POCO (Percentage of Control) disease level, Phytophthora infestans (Tomatoes) [6]: 90 (90 and 94 = 60.1-100% disease present) | POCO (Percentage of Control) disease level, Septoria nodorum (Wheat) (Septoria nodorum (Wheat)): 90 (90 and 94 = 60.1-100% disease present) | POCO (Percentage of Control) disease level, Venturia inaequalis (Apples) [7]: 60 (60 = 30.1-60% disease present)

COC=C(C(=O)OC)c1ccccc1COC(=O)N(C)c1ccccc1OC [16 (2)]
POCO (Percentage of Control) disease level, Thanatephorus cucumeries (Rice) [1]: 5 (5 = 3.1-5% disease present) | POCO (Percentage of Control) disease level, Pyricularia oryzae (Rice) [2]: 0 (0 = 0% disease present) | POCO (Percentage of Control) disease level, Erysiphe graminis tritici (Wheat) [3]: 0 (0 = 0% disease present) | POCO (Percentage of Control) disease level, Puccinia recondita (Wheat) [4]: 10+ (10 = 5.1-10% disease present) | POCO (Percentage of Control) disease level, Plasmopara viticola (Vines) [5]: 0 (0 = 0% disease present) | POCO (Percentage of Control) disease level, Phytophthora infestans (Tomatoes) [6]: 20 (20 and 24 = 10.1-20% disease present) | POCO (Percentage of Control) disease level, Septoria nodorum (Wheat) (Septoria nodorum (Wheat)): 5 (5 = 3.1-5% disease present) | POCO (Percentage of Control) disease level, Venturia inaequalis (Apples) [7]: 1 (1 = 0.1-1% disease present)

C#CCN(C(=O)OCc1ccccc1C(=COC)C(=O)OC)c1ccccc1OC [16 (15)]
POCO (Percentage of Control) disease level, Thanatephorus cucumeries (Rice) [1]: 0 (0 = 0% disease present) | POCO (Percentage of Control) disease level, Pyricularia oryzae (Rice) [2]: 0 (0 = 0% disease present) | POCO (Percentage of Control) disease level, Erysiphe graminis tritici (Wheat) [3]: 0 (0 = 0% disease present) | POCO (Percentage of Control) disease level, Puccinia recondita (Wheat) [4]: 60+ (60 = 30.1-60% disease present) | POCO (Percentage of Control) disease level, Plasmopara viticola (Vines) [5]: 0 (0 = 0% disease present) | POCO (Percentage of Control) disease level, Phytophthora infestans (Tomatoes) [6]: 5 (5 = 3.1-5% disease present) | POCO (Percentage of Control) disease level, Septoria nodorum (Wheat) (Septoria nodorum (Wheat)): 10 (10 = 5.1-10% disease present) | POCO (Percentage of Control) disease level, Venturia inaequalis (Apples) [7]: 1 (1 = 0.1-1% disease present)

COC=C(C(=O)OC)c1ccccc1COC(=O)Nc1ccccc1C(F)(F)F [18 (1)]
POCO (Percentage of Control) disease level, Thanatephorus cucumeries (Rice) [1]: 90 (90 and 94 = 60.1-100% disease present) | POCO (Percentage of Control) disease level, Pyricularia oryzae (Rice) [2]: 60 (60 = 30.1-60% disease present) | POCO (Percentage of Control) disease level, Erysiphe graminis tritici (Wheat) [3]: 90 (90 and 94 = 60.1-100% disease present) | POCO (Percentage of Control) disease level, Puccinia recondita (Wheat) [4]: 90+ (90 and 94 = 60.1-100% disease present) | POCO (Percentage of Control) disease level, Plasmopara viticola (Vines) [5]: 0 (0 = 0% disease present) | POCO (Percentage of Control) disease level, Phytophthora infestans (Tomatoes) [6]: 90 (90 and 94 = 60.1-100% disease present) | POCO (Percentage of Control) disease level, Septoria nodorum (Wheat) (Septoria nodorum (Wheat)): 90 (90 and 94 = 60.1-100% disease present) | POCO (Percentage of Control) disease level, Venturia inaequalis (Apples) [7]: 3 (3 = 1.1-3% disease present)

COC=C(C(=O)OC)c1ccccc1COC(=O)N(C)c1ccccc1C(F)(F)F [18 (2)]
POCO (Percentage of Control) disease level, Thanatephorus cucumeries (Rice) [1]: 60 (60 = 30.1-60% disease present) | POCO (Percentage of Control) disease level, Pyricularia oryzae (Rice) [2]: 60 (60 = 30.1-60% disease present) | POCO (Percentage of Control) disease level, Erysiphe graminis tritici (Wheat) [3]: 60 (60 = 30.1-60% disease present) | POCO (Percentage of Control) disease level, Puccinia recondita (Wheat) [4]: 90+ (90 and 94 = 60.1-100% disease present) | POCO (Percentage of Control) disease level, Plasmopara viticola (Vines) [5]: 3 (3 = 1.1-3% disease present) | POCO (Percentage of Control) disease level, Phytophthora infestans (Tomatoes) [6]: 90 (90 and 94 = 60.1-100% disease present) | POCO (Percentage of Control) disease level, Septoria nodorum (Wheat) (Septoria nodorum (Wheat)): 90 (90 and 94 = 60.1-100% disease present) | POCO (Percentage of Control) disease level, Venturia inaequalis (Apples) [7]: 3 (3 = 1.1-3% disease present)
